Biological target: T1, ERα (Homo sapiens, UniProt P03372)
T1 construct: host or cells: MCF7
T1 sequence (P03372 1-595): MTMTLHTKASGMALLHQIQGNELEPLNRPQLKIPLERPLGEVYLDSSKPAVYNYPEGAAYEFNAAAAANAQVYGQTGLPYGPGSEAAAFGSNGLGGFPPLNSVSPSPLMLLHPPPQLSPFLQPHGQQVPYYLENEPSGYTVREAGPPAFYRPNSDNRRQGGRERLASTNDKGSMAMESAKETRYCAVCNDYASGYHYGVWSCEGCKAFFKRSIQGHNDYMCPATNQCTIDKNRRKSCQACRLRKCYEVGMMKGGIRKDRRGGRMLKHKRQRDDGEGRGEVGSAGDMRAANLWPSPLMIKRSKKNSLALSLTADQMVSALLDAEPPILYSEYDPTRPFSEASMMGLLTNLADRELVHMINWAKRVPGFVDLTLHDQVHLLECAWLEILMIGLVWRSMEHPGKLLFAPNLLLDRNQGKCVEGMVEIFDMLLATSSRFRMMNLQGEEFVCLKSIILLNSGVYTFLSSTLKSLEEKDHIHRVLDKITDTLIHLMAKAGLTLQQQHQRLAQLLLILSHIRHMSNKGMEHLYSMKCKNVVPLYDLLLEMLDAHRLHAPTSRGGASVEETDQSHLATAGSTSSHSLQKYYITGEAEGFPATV
Assay: Estrogen receptor degradation activity: breast cancer cell ERα in cell western assay (MCF7 cells)
Format: cell-based
Conditions: for % Degradation At 0.3 μM: 4 hours, relative to fulvestrant 0.1 μM positive control; for DC50: read-out: Degradation IC50
In short: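 Compounds were applied to MCF7 cells in stripped-serum, phenol red-free medium for 4 h at final 0.3–0.0000018 μM, with fulvestrant (0.1 μM) as control. Value: IC50 (nM) for 50% ERα degradation.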

[1] = 4 hours post compound addition, concentration which degrades 50% of the estrogen receptor

% Degradation At 0.3 μM | DC50 [1] | IC50 [1] | Structure (SMILES)
100% | 180 nM |  | COc1c(C(=O)O)ccc2c1CCCC(c1ccc(F)cc1C)=C2c1ccc(CC2CN(CCCF)C2)cc1 [Example 269, 8-(4-fluoro-2-methylphenyl)-9-(4-((1-(3-fluoropropyl)azetidin-3-yl)methyl)phenyl)-4-methoxy-6,7-dihydro-5H-benzo[7]annulene-3-carboxylic acid]
75% | 0.6 nM |  | COC(c1ccc(C2=C(c3ccc(Cl)cc3Cl)CCCc3cc(C(=O)O)ccc32)cc1)C1CN(CCCF)C1 (single isomer, unassigned; isomer 1) [Example 227, 8-(2,4-dichlorophenyl)-9-(4-((1-(3-fluoropropyl)azetidin-3-yl)(methoxy)methyl)phenyl)-6,7-dihydro-5H-benzo[7]annulene-3-carboxylic Acid Isomer 1]
91% | 0.2 nM |  | O=C(O)c1ccc2c(c1)CCCC(c1ccc(Cl)cc1C(F)F)=C2c1ccc(CC2CN(CCCF)C2)cc1 [Example 221, 8-(4-chloro-2-(difluoromethyl)phenyl)-9-(4-((1-(3-fluoropropyl)azetidin-3-yl)methyl)phenyl)-6,7-dihydro-5H-benzo[7]annulene-3-carboxylic acid]
86% | 0.3 nM |  | O=C(O)c1ccc2c(c1)CCCC(c1ccc(Cl)cc1C(F)(F)F)=C2c1ccc(CC2CN(CCC(F)F)C2)cc1 [Example 289, 8-(4-chloro-2-(trifluoromethyl)phenyl)-9-(4-((1-(3,3-difluoropropyl)azetidin-3-yl)methyl)phenyl)-6,7-dihydro-5H-benzo[7]annulene-3-carboxylic acid]
88% |  | 0.1 nM | O=C(O)c1ccc2c(c1)CCCC(c1cccc(F)c1C(F)(F)F)=C2c1ccc(CC2CN(CCCF)C2)cc1 [Example 232, 8-(3-fluoro-2-(trifluoromethyl)phenyl)-9-(4-((1-(3-fluoropropyl)azetidin-3-yl)methyl)phenyl)-6,7-dihydro-5H-benzo[7]annulene-3-carboxylic acid]
86% | 0.4 nM |  | Cc1c(C2=C(c3ccc(CC4CN(CCC(F)F)C4)cc3)c3ccc(C(=O)O)cc3CCC2)cccc1C(F)(F)F [Example 287, 9-(4-((1-(3,3-difluoropropyl)azetidin-3-yl)methyl)phenyl)-8-(2-methyl-3-(trifluoromethyl)phenyl)-6,7-dihydro-5H-benzo[7]annulene-3-carboxylic acid]

From patent publication US12595230B2, “Substituted 6,7-dihydro-5H-benzo[7]annulene compounds and their derivatives, processes for their preparation and therapeutic uses thereof” (Sanofi, priority 2020, dated 2026)
